According to PubChem BioAssay AID1845210 (Molecular Pharmacology Branch, DTP, NCI, 2023):

Tested on: NCI-H226 complex tumor spheroids, viability
Test: Anticancer human tumor NCI-H226 cell line growth inhibition;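 further: spheroids exposed to compound for 7 days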;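 on viability, T/C: 100% = DMSO vehicle control viability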
Details: for IC50: curve of first compound; for viability, T/C: stronger effect = lower value
How it was run: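 Complex spheroids of malignant cells with endothelial cells and mesenchymal stem cells; agents alone or combined, from near clinical Cmax (or 10 microM if unknown) down in half-log steps, 0.25% DMSO final.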

[1] = second compound 0.003 µM, first compound 0.0316 µM
[2] = second compound 0.003 µM, first compound 0.1 µM
[3] = second compound 0.003 µM, first compound 0.316 µM
[4] = second compound 0.003 µM, first compound 1 µM
[5] = second compound 0.003 µM, first compound 3.16 µM
[6] = second compound 0.003 µM, first compound 10 µM
[7] = second compound 0.00949 µM, first compound 0.0316 µM
[8] = second compound 0.00949 µM, first compound 0.1 µM
[9] = second compound 0.00949 µM, first compound 0.316 µM
[10] = second compound 0.00949 µM, first compound 1 µM
[11] = second compound 0.00949 µM, first compound 3.16 µM
[12] = second compound 0.00949 µM, first compound 10 µM
[13] = second compound 0.03 µM, first compound 0.0316 µM
[14] = second compound 0.03 µM, first compound 0.1 µM
[15] = second compound 0.03 µM, first compound 0.316 µM
[16] = second compound 0.03 µM, first compound 1 µM
[17] = second compound 0.03 µM, first compound 3.16 µM
[18] = second compound 0.03 µM, first compound 10 µM
[19] = second compound 0.0949 µM, first compound 0.0316 µM
[20] = second compound 0.0949 µM, first compound 0.1 µM
[21] = second compound 0.0949 µM, first compound 0.316 µM
[22] = second compound 0.0949 µM, first compound 1 µM
[23] = second compound 0.0949 µM, first compound 3.16 µM
[24] = second compound 0.0949 µM, first compound 10 µM
[25] = second compound 0.3 µM, first compound 0.0316 µM
[26] = second compound 0.3 µM, first compound 0.1 µM
[27] = second compound 0.3 µM, first compound 0.316 µM
[28] = second compound 0.3 µM, first compound 1 µM
[29] = second compound 0.3 µM, first compound 3.16 µM
[30] = second compound 0.3 µM, first compound 10 µM
[31] = second compound 30 pM, first compound 0.00949 µM
[32] = second compound 30 pM, first compound 0.03 µM
[33] = second compound 30 pM, first compound 0.0949 µM
[34] = second compound 30 pM, first compound 0.3 µM
[35] = second compound 30 pM, first compound 0.949 µM
[36] = second compound 30 pM, first compound 3 µM
[37] = second compound 94.9 pM, first compound 0.00949 µM
[38] = second compound 94.9 pM, first compound 0.03 µM
[39] = second compound 94.9 pM, first compound 0.0949 µM
[40] = second compound 94.9 pM, first compound 0.3 µM
[41] = second compound 94.9 pM, first compound 0.949 µM
[42] = second compound 94.9 pM, first compound 3 µM
[43] = second compound 0.0003 µM, first compound 0.00949 µM
[44] = second compound 0.0003 µM, first compound 0.03 µM
[45] = second compound 0.0003 µM, first compound 0.0949 µM
[46] = second compound 0.0003 µM, first compound 0.3 µM
[47] = second compound 0.0003 µM, first compound 0.949 µM
[48] = second compound 0.0003 µM, first compound 3 µM
[49] = second compound 0.000949 µM, first compound 0.00949 µM
[50] = second compound 0.000949 µM, first compound 0.03 µM
[51] = second compound 0.000949 µM, first compound 0.0949 µM
[52] = second compound 0.000949 µM, first compound 0.3 µM
[53] = second compound 0.000949 µM, first compound 0.949 µM
[54] = second compound 0.000949 µM, first compound 3 µM
[55] = second compound 0.003 µM, first compound 0.00949 µM
[56] = second compound 0.003 µM, first compound 0.03 µM
[57] = second compound 0.003 µM, first compound 0.0949 µM
[58] = second compound 0.003 µM, first compound 0.3 µM
[59] = second compound 0.003 µM, first compound 0.949 µM
[60] = second compound 0.003 µM, first compound 3 µM

SMILES: CC(C)n1c(=O)n(C)c2cnc3cc(F)c(-c4ccc(OCCCN5CCCCC5)nc4)cc3c21 + CC[C@@]1(O)C(=O)OCc2c1cc1n(c2=O)Cc2cc3c(CN(C)C)c(O)ccc3nc2-1
- IC50 (second compound 0.003 µM): 6020 nM
- IC50 (second compound 0.00949 µM): 5720 nM
- IC50 (second compound 0.03 µM): 5240 nM
- IC50 (second compound 0.0949 µM): 4410 nM
- IC50 (second compound 0.3 µM): 5010 nM
- viability, T/C [1]: 99.8%
- viability, T/C [2]: 92.3%
- viability, T/C [3]: 94.5%
- viability, T/C [4]: 93.9%
- viability, T/C [5]: 82.3%
- viability, T/C [6]: 24.5%
- viability, T/C [7]: 86.4%
- viability, T/C [8]: 86.5%
- viability, T/C [9]: 86.5%
- viability, T/C [10]: 86.3%
- viability, T/C [11]: 84%
- viability, T/C [12]: 17.9%
- viability, T/C [13]: 81.4%
- viability, T/C [14]: 78.3%
- viability, T/C [15]: 83.2%
- viability, T/C [16]: 75.4%
- viability, T/C [17]: 73.2%
- viability, T/C [18]: 21%
- viability, T/C [19]: 87.4%
- viability, T/C [20]: 85.3%
- viability, T/C [21]: 75.7%
- viability, T/C [22]: 77.9%
- viability, T/C [23]: 61.5%
- viability, T/C [24]: 22.8%
- viability, T/C [25]: 92.2%
- viability, T/C [26]: 84.3%
- viability, T/C [27]: 73.4%
- viability, T/C [28]: 84.1%
- viability, T/C [29]: 71.8%
- viability, T/C [30]: 17%

SMILES: COc1ccc([C@@H](O)c2cc(-c3ncnc4cc(N5CCOCC5)ccc34)c(F)cc2Cl)nn1 + CC[C@@]1(O)C(=O)OCc2c1cc1n(c2=O)Cc2cc3c(CN(C)C)c(O)ccc3nc2-1
- IC50 (second compound 0.003 µM): 4240 nM
- IC50 (second compound 0.00949 µM): 2920 nM
- IC50 (second compound 0.03 µM): 1880 nM
- IC50 (second compound 0.0949 µM): 2480 nM
- IC50 (second compound 0.3 µM): 1520 nM
- viability, T/C [1]: 98.2%
- viability, T/C [2]: 96.3%
- viability, T/C [3]: 88.3%
- viability, T/C [4]: 71.1%
- viability, T/C [5]: 56.7%
- viability, T/C [6]: 34.7%
- viability, T/C [7]: 87.8%
- viability, T/C [8]: 98.7%
- viability, T/C [9]: 90.6%
- viability, T/C [10]: 74.5%
- viability, T/C [11]: 48.9%
- viability, T/C [12]: 35.2%
- viability, T/C [13]: 79.6%
- viability, T/C [14]: 81.7%
- viability, T/C [15]: 75.6%
- viability, T/C [16]: 57.1%
- viability, T/C [17]: 44.1%
- viability, T/C [18]: 30.2%
- viability, T/C [19]: 90.4%
- viability, T/C [20]: 83.1%
- viability, T/C [21]: 74.8%
- viability, T/C [22]: 65.2%
- viability, T/C [23]: 44.8%
- viability, T/C [24]: 30.3%
- viability, T/C [25]: 68.1%
- viability, T/C [26]: 73.2%
- viability, T/C [27]: 65.9%
- viability, T/C [28]: 55.8%
- viability, T/C [29]: 39.8%
- viability, T/C [30]: 30.8%

SMILES: CNCc1ccc(-c2cc(-c3nc(-c4ccc(S(=O)(=O)C(C)C)cc4)cnc3N)on2)cc1 + COc1cc2c(cc1O)CCNC21CSC2c3c(OC(C)=O)c(C)c4c(c3C(COC1=O)N1C(O)C3Cc5cc(C)c(OC)c(O)c5C(C21)N3C)OCO4
- IC50 (second compound 30 pM): 1610 nM
- IC50 (second compound 94.9 pM): 1480 nM
- IC50 (second compound 0.0003 µM): 1500 nM
- IC50 (second compound 0.000949 µM): 1020 nM
- IC50 (second compound 0.003 µM): < 9.49 nM
- viability, T/C [31]: 89.5%
- viability, T/C [32]: 96.1%
- viability, T/C [33]: 103%
- viability, T/C [34]: 123%
- viability, T/C [35]: 91.9%
- viability, T/C [36]: 0.9%
- viability, T/C [37]: 85.9%
- viability, T/C [38]: 99.4%
- viability, T/C [39]: 105%
- viability, T/C [40]: 127%
- viability, T/C [41]: 80.9%
- viability, T/C [42]: 0.45%
- viability, T/C [43]: 89.7%
- viability, T/C [44]: 105%
- viability, T/C [45]: 106%
- viability, T/C [46]: 138%
- viability, T/C [47]: 82.9%
- viability, T/C [48]: 0.44%
- viability, T/C [49]: 88.1%
- viability, T/C [50]: 94.1%
- viability, T/C [51]: 124%
- viability, T/C [52]: 91.4%
- viability, T/C [53]: 53.9%
- viability, T/C [54]: 0.33%
- viability, T/C [55]: 2.12%
- viability, T/C [56]: 1.88%
- viability, T/C [57]: 3%
- viability, T/C [58]: 1.46%
- viability, T/C [59]: 0.37%
- viability, T/C [60]: 0.31%

SMILES: Cn1ncnc1[C@H]1c2n[nH]c(=O)c3cc(F)cc(c23)N[C@@H]1c1ccc(F)cc1 + COc1cc2c(cc1O)CCNC21CSC2c3c(OC(C)=O)c(C)c4c(c3C(COC1=O)N1C(O)C3Cc5cc(C)c(OC)c(O)c5C(C21)N3C)OCO4
- IC50 (second compound 30 pM): > 3000 nM
- IC50 (second compound 94.9 pM): > 3000 nM
- IC50 (second compound 0.0003 µM): > 3000 nM
- IC50 (second compound 0.000949 µM): > 3000 nM
- IC50 (second compound 0.003 µM): 157 nM
- viability, T/C [31]: 90%
- viability, T/C [32]: 103%
- viability, T/C [33]: 106%
- viability, T/C [34]: 92.8%
- viability, T/C [35]: 91.3%
- viability, T/C [36]: 111%
- viability, T/C [37]: 103%
- viability, T/C [38]: 101%
- viability, T/C [39]: 104%
- viability, T/C [40]: 102%
- viability, T/C [41]: 101%
- viability, T/C [42]: 110%
- viability, T/C [43]: 122%
- viability, T/C [44]: 100%
- viability, T/C [45]: 113%
- viability, T/C [46]: 119%
- viability, T/C [47]: 119%
- viability, T/C [48]: 113%
- viability, T/C [49]: 79.2%
- viability, T/C [50]: 76.2%
- viability, T/C [51]: 71.1%
- viability, T/C [52]: 93.3%
- viability, T/C [53]: 87.1%
- viability, T/C [54]: 76.2%
- viability, T/C [55]: 53.1%
- viability, T/C [56]: 70.3%
- viability, T/C [57]: 85.7%
- viability, T/C [58]: 24.9%
- viability, T/C [59]: 20.6%
- viability, T/C [60]: 0.42%

SMILES: O=C(c1cc(Cc2n[nH]c(=O)c3ccccc23)ccc1F)N1CCN(C(=O)C2CC2)CC1 + COc1cc2c(cc1O)CCNC21CSC2c3c(OC(C)=O)c(C)c4c(c3C(COC1=O)N1C(O)C3Cc5cc(C)c(OC)c(O)c5C(C21)N3C)OCO4
- IC50 (second compound 30 pM): > 30000 nM
- IC50 (second compound 94.9 pM): > 30000 nM
- IC50 (second compound 0.0003 µM): > 30000 nM
- IC50 (second compound 0.000949 µM): > 30000 nM
- IC50 (second compound 0.003 µM): < 94.9 nM
- viability, T/C [33]: 94.5%
- viability, T/C [34]: 109%
- viability, T/C [35]: 109%
- viability, T/C [36]: 108%
- viability, T/C (second compound 30 pM, first compound 9.49 µM): 99.4%
- viability, T/C (second compound 30 pM, first compound 30 µM): 82.5%
- viability, T/C [39]: 109%
- viability, T/C [40]: 95%
- viability, T/C [41]: 105%
- viability, T/C [42]: 101%
- viability, T/C (second compound 94.9 pM, first compound 9.49 µM): 99.4%
- viability, T/C (second compound 94.9 pM, first compound 30 µM): 102%
- viability, T/C [45]: 115%
- viability, T/C [46]: 129%
- viability, T/C [47]: 126%
- viability, T/C [48]: 118%
- viability, T/C (second compound 0.0003 µM, first compound 9.49 µM): 112%
- viability, T/C (second compound 0.0003 µM, first compound 30 µM): 93.2%
- viability, T/C [51]: 126%
- viability, T/C [52]: 112%
- viability, T/C [53]: 100%
- viability, T/C [54]: 103%
- viability, T/C (second compound 0.000949 µM, first compound 9.49 µM): 87.4%
- viability, T/C (second compound 0.000949 µM, first compound 30 µM): 49.5%
- viability, T/C [57]: 2.43%
- viability, T/C [58]: 16.1%
- viability, T/C [59]: 1.13%
- viability, T/C [60]: 2.74%
- viability, T/C (second compound 0.003 µM, first compound 9.49 µM): 0.95%
- viability, T/C (second compound 0.003 µM, first compound 30 µM): 0.69%
